Laboratory results: PMC10726357, “New Genetically Engineered Derivatives of Antibacterial Darobactins Underpin Their Potential for Antibiotic Development” (Journal of Medicinal Chemistry, 2023)
≈ marks a conversion by molar mass, not a printed value. Where no end group is shown, it is not given here.

Key:
A. baumannii DSM-30008 = type: cell-based, Acinetobacter baumannii; conditions: DSM-30008
Method: (§1) The antibacterial activity of novel darobactins was determined by the evaluation of the minimum inhibitory concentration (MIC) as previously described for crude extracts and for pure darobactin analogues.[12]

K. pneumoniae DSM-30104 = type: cell-based, Klebsiella pneumoniae; conditions: DSM-30104
Method: as §1

P. aeruginosa PA01 [1] = type: cell-based, Pseudomonas aeruginosa
Method: as §1

E. coli ATCC25922 = type: cell-based, Escherichia coli; conditions: ATCC25922
Method: as §1

[2] = biological target: T1, EcBamA (E. coli BamA barrel domain) (Escherichia coli, UniProt P0A940, C690S/C700S); experiment: Microscale thermophoresis (MST) KD determination; type: binding
T1 construct: The E. coli BamA barrel domain (BamA-β) (residues 421–810, C690S, C700S); made in house
Method: As an alternative to the previously published methods using isothermal titration calorimetry (ITC), we established a KD determination assay using microscale thermophoresis (MST) to enable higher throughput.
Microscale thermophoresis (MST) (serial no. 201709-BR-N024, Monolith NT.115 Micro Scale Thermophoresis, NanoTemper Technologies GmbH) was performed according to the standard protocol from the manufacturer NanoTemper Technologies GmbH using a Monolith His-Tag Labeling Kit RED-tris-NTA second-generation kit. The buffer used was HEPES (50 mM), pH 7.6, MgCl2 (5 mM), and Tween (0.05%). […] A 1:1 dilution of the ligand over 16 samples was performed using a stock of ligand (in water) diluted in HEPES buffer. Nonhydrophobic capillary tubes were used. A pretest to check for the labeling and compound fluorescence was performed for every sample followed by a binding affinity (KD) determination. Each sample was measured after 15 min of incubation at RT and analyzed in MO Control version 1.6.

[3] = tested on: Acinetobacter baumannii DSM-30008; experiment: Antibacterial activity screening of darobactin-containing crude extracts; type: cell-based; set-up: key: two-fold serial dilution from 1:15 (A) (concentration factor: 6.67×); low activity A B C D E F G H high activity; low activity A B C D E F G H high activity; low activity A B C D E F G H high activity; low activity A B C D E F G H high activity; low activity A B C D E F G H high activity; low activity A B C D E F G H high activity; to 1:3,840 (H) (concentration factor: 0.05×); conditions: derivative-containing crude extract, two-fold serial dilution
Method: (§2) The extracts of production clones for all derivatives were prepared and tested for their antibacterial activity against E. coli ATCC 25922, P. aeruginosa PA01, K. pneumoniae DSM-30104, and A. baumannii DSM-30008.
as §1

[4] = tested on: Escherichia coli ATCC 25922; experiment: as above; type: cell-based; set-up: key: two-fold serial dilution from 1:15 (A) (concentration factor: 6.67×); low activity A B C D E F G H high activity; low activity A B C D E F G H high activity; low activity A B C D E F G H high activity; low activity A B C D E F G H high activity; low activity A B C D E F G H high activity; low activity A B C D E F G H high activity; to 1:3,840 (H) (concentration factor: 0.05×); conditions: derivative-containing crude extract, two-fold serial dilution
Method: as §2, §1

[5] = tested on: Klebsiella pneumoniae DSM-30104; experiment: as above; type: cell-based; set-up: key: two-fold serial dilution from 1:15 (A) (concentration factor: 6.67×); low activity A B C D E F G H high activity; low activity A B C D E F G H high activity; low activity A B C D E F G H high activity; low activity A B C D E F G H high activity; low activity A B C D E F G H high activity; low activity A B C D E F G H high activity; to 1:3,840 (H) (concentration factor: 0.05×); conditions: derivative-containing crude extract, two-fold serial dilution
Method: as §2, §1

P. aeruginosa PA01 [6] = experiment: as above; type: cell-based, Pseudomonas aeruginosa; set-up: key: two-fold serial dilution from 1:15 (A) (concentration factor: 6.67×); low activity A B C D E F G H high activity; low activity A B C D E F G H high activity; low activity A B C D E F G H high activity; low activity A B C D E F G H high activity; low activity A B C D E F G H high activity; low activity A B C D E F G H high activity; to 1:3,840 (H) (concentration factor: 0.05×); conditions: derivative-containing crude extract, two-fold serial dilution
Method: as §2, §1

Compound | MIC A. baumannii [DSM-30008] (A. baumannii DSM-30008) [mg/L] | MIC K. pneumoniae [DSM-30104] (K. pneumoniae DSM-30104) [mg/L] | MIC P. aeruginosa [PA01] (P. aeruginosa PA01 [1]) [mg/L] | MIC E. coli [ATCC25922] (E. coli ATCC25922) [mg/L] | Kd [2] [µM] | IC50 HepG2 (HepG2) [mg/L] | antimicrobial activity of crude extract: highest dilution factor with full growth inhibition, A. baumannii DSM-30008 [3] | antimicrobial activity of crude extract: highest dilution factor with full growth inhibition, E. coli ATCC25922 [4] | antimicrobial activity of crude extract: highest dilution factor with full growth inhibition, K. pneumoniae DSM-30104 [5] | antimicrobial activity of crude extract: highest dilution factor with full growth inhibition, P. aeruginosa PA01 (P. aeruginosa PA01 [6])
C[C@@H](O)[C@@H]1NC(=O)[C@H]2NC(=O)[C@H](CC(N)=O)NC(=O)[C@@H](N)Cc3c[nH]c4c(cccc34)O[C@@H]2c2c[nH]c3cc(ccc23)[C@H](CCNC(=N)N)[C@@H](C(=O)N[C@@H](CCCNC(=N)N)C(=O)N[C@@H](Cc2c[nH]c3ccccc23)C(=O)O)NC1=O [D39] | 0.5 to 2 | 4 to 8 | 2 (≈ 1.79 µM) | 4 to 8 | 10.9 ± 3.5 | >37 | – | – | – | –
C[C@@H](O)[C@@H]1NC(=O)[C@H]2NC(=O)[C@H](CC(=O)O)NC(=O)[C@@H](N)Cc3c[nH]c4c(cccc34)O[C@@H]2c2c[nH]c3cc(ccc23)[C@H](CCCN)[C@@H](C(=O)N[C@@H](CCCNC(=N)N)C(=O)N[C@@H](Cc2c[nH]c3ccccc23)C(=O)O)NC1=O [D60] | 2 (≈ 1.84 µM) | 16 (≈ 14.7 µM) | 4 (≈ 3.67 µM) | 16 (≈ 14.7 µM) | – | > 37 | – | – | – | –
C[C@@H](O)[C@@H]1NC(=O)[C@H]2NC(=O)[C@H](CC(N)=O)NC(=O)[C@@H](N)Cc3c[nH]c4c(cccc34)O[C@@H]2c2c[nH]c3cc(ccc23)[C@H](CCCN)[C@@H](C(=O)N[C@@H](CCC(N)=O)C(=O)N[C@@H](Cc2c[nH]c3ccccc23)C(=O)O)NC1=O [D74] | 4 (≈ 3.77 µM) | 16 (≈ 15.1 µM) | 2 (≈ 1.89 µM) | 4 (≈ 3.77 µM) | – | > 37 | – | – | – | –
D59: novel darobactin derivative, core peptide WKWTKRW (not fully specified (bridges); also: darobactin bicyclic crosslinks) | – | – | – | – | – | – | A | A | A | A
D62: novel darobactin derivative, core peptide WRWTKRW (not fully specified (bridges); also: darobactin bicyclic crosslinks) | – | – | – | – | – | – | A | – | B | –
D63: novel darobactin derivative, core peptide WVWTKRW (not fully specified (bridges); also: darobactin bicyclic crosslinks) | – | – | – | – | – | – | C | – | B | A
D65: novel darobactin derivative, core peptide WSWTKKW (not fully specified (bridges); also: darobactin bicyclic crosslinks) | – | – | – | – | – | – | D | A | A | B
D66: novel darobactin derivative, core peptide WNWTKCW (not fully specified (bridges); also: darobactin bicyclic crosslinks) | – | – | – | – | – | – | C | A | A | B
D67: novel darobactin derivative, core peptide WYWTKRW (not fully specified (bridges); also: darobactin bicyclic crosslinks) | – | – | – | – | – | – | E | C | C | D
D68: novel darobactin derivative, core peptide WLWTKRW (not fully specified (bridges); also: darobactin bicyclic crosslinks) | – | – | – | – | – | – | D | B | B | B
D70: novel darobactin derivative, core peptide WSWSKRW (also: darobactin bicyclic crosslinks) | – | – | – | – | – | – | E | C | C | D
D71: novel darobactin derivative, core peptide WEWSKRW (also: darobactin bicyclic crosslinks) | – | – | – | – | – | – | E | C | C | B-C
D72: novel darobactin derivative, core peptide WKWSKRW (also: darobactin bicyclic crosslinks) | – | – | – | – | – | – | C | C | B | B
D73: novel darobactin derivative, core peptide WDWSKRW (also: darobactin bicyclic crosslinks) | – | – | – | – | – | – | C | A | A | B
